According to US12161648B2, “Covalent targeting of E3 ligases” (The Regents of the University of California, priority 2018, dated 2024):
pIC50: −log10 of the molar value. “Also recorded” adds a separate entry of the source.

How the values were obtained:
RNF4 = biological target: T1, RNF4 (Homo sapiens, UniProt P78317); assay: Gel-based ABPP, competition against IA-rhodamine labeling of pure RNF4; type: binding; conditions: for hits from covalent ligand screen against IA-rhodamine labeling of RNF4: covalent ligands 50 μM, IA-rhodamine 250 nM 1 h; for hits from covalent ligand screen against IA-rhodamine labeling of RNF4 / pIC50: 30 min pre-incubation; for pIC50: read-out: 50% inhibitory concentration (IC50), IA-rhodamine labeling of RNF4, densitometry; for inhibition of IA-rhodamine labeling of RNF4: confirmation of screening hits
T1 construct: purchased Boston Biochem K-220
T1 sequence (P78317 1-190): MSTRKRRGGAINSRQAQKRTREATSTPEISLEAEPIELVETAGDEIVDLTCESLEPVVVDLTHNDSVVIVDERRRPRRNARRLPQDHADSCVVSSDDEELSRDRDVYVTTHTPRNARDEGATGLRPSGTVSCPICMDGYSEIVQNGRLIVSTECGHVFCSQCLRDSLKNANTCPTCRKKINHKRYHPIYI
Protocol: Gel-Based ABPP. Gel-based ABPP methods were performed as previously described^5,6,25,26. Pure recombinant human RNF4 was purchased from Boston Biochem (K-220). RNF4 (0.25 μg) was diluted into 50 μL of PBS and 1p L of either DMSO (vehicle) or covalently acting small molecule to achieve the desired concentration. After 30 minutes at room temperature, the samples were treated with 250 nM IA-Rhodamine (Setareh Biotech, 6222, prepared in anhydrous DMSO) for 1 h at room temperature. Samples were then diluted with 20 μL of 4× reducing Laemmli SDS sample loading buffer (Alfa Aesar) and heated at 90° C. for 5 min. The samples were separated on precast 4-20% Criterion TGX gels (Bio-Rad Laboratories, Inc.). Fluorescent imaging was performed on a ChemiDoc MP (Bio-Rad Laboratories, Inc) inhibition of target labeling was assessed by densitometry using ImageJ.

BRD4 [1] = assay: Cell based degrader assay, BRD4 levels by Western blotting in 231MFP cells; set-up: species or system human; conditions: for dose-response of BRD4 degradation: 12 h
Protocol: (§1) Cell based degrader assays. For assaying degrader activity, cells were seeded (500,000 for 231MFP cells, 300,000 for HeLa cells) into a 6 cm tissue culture dish (Corning) in 2.0-2.5 mL of media and allowed to adhere overnight. The following morning, media was replaced with complete media containing the desired concentration of compound diluted from a 1000× stock in DMSO. At the specified timepoint, cells were washed once with PBS on ice, before 150 uL of lysis buffer was added to the plate (10 mM sodium phosphate, 150 mM NaCl, 0.1% SDS, 0.5% sodium deoxycholate, 1% Triton X100). The cells were incubated in lysis buffer for 5 min before scraping and transfer to microcentrifuge tubes. The lysates were then frozen at −80 C or immediately processed for western blotting. To prepare for western blotting, the lysates were cleared with 20,000 g spin for 10 min and the resulting supernatants quantified via BCA assay. The lysates were normalized by dilution with PBS to match the lowest concentration lysate and appropriate amount of 4× Laemmli's reducing buffer added.
Western blotting. Antibodies to RNF4 (Proteintech, 17810-1-AP, 1:1000), GAPDH (Proteintech, 60004-1-IG, 1:5000), BRD4 (Abcam, Ab128874, 1:1000), and beta-actin (Proteintech Group Inc., 6609-1-IG, 1:7000) were obtained from the specified commercial sources and dilutions were prepared in 5% BSA/TBST at the specified dilutions.

[2] = tested on: 231MFP breast cancer cells; assay: isoTOP-ABPP proteome-wide selectivity in 231MFP cells in situ; type: cell-based, human
Protocol: IsoTOP-ABPP chemoproteomic studies. IsoTOP-ABPP studies were done as previously reported^4,6,7,12. […] Proteomes were subsequently treated with IA-alkyne (100 μM, Chess GmbH, 3187) for 1 h at RT. […] Tryptic peptides were eluted off.
Mass Spectrometry Analysis.

BRD4 [3] = biological target: T2, BRD4 (Homo sapiens, UniProt O60885); assay: BRD4 degradation in RNF4 wild-type and knockout HeLa cells; type: cell-based; conditions: 10 μM 5 h
T2 construct: endogenous in cells; host or cells: HeLa cells, RNF4 wild-type and RNF4 knockout
Protocol: Cell Culture. The 231MFP cells were obtained from Prof. Benjamin Cravatt and were generated from explanted tumor xenografts of MDA-MB-231 cells as previously described^27. RNF4 knockout HeLa cells were purchased from EdiGene USA (CL0033025003A). RNF4 wild-type HeLa cells were provided by EdiGene USA or the UC Berkeley Cell Culture Facility. 231MFP cells were cultured in L-15 media (Corning) containing 10% (v/v) fetal bovine serum (FBS) and maintained at 37° C. with 0% CO2. HeLa cells were cultured in DMEM media (Corning) containing 10% (v/v) fetal bovine serum (FBS) and maintained at 37° C. with 5% CO2.
as §1, with “The cells were incubated in lysis buffer for 5 min before scraping and transfer to microcentrifuge tubes. The lysates were then frozen at −80 C or immediately processed for western blotting.” left out, “The lysates were normalized by dilution with PBS to match the lowest concentration lysate and appropriate amount of 4× Laemmli's reducing buffer added.” left out

[4] = tested on: 231MFP breast cancer cell proteomes; assay: Gel-based ABPP of general cysteine-reactivity in 231MFP lysates; type: binding, human; conditions: IA-rhodamine 250 nM
Protocol: FIG. 5. Additional hits against RNF4 and general assessment of proteome-wide selectivity of RNF4 hits by gel-based ABPP. Gel-based ABPP analysis of DKM 2-76 and TRH 1-74 against IA-rhodamine labeling of RNF4. Covalent ligands were pre-incubated with pure RNF4 protein for 30 min prior to IA-rhodamine labeling (250 nM) for 1 h. Proteins were subjected to SDS/PAGE and visualized by in-gel fluorescence. Gel-based ABPP screen of RNF4 hits YP 1-44 and TRH 1-23 against IA-rhodamine labeling in 231MFP breast cancer cell proteomes. YP 1-44 and TRH 1-23 were pre-incubated with proteome for 30 min prior to IA-rhodamine labeling (250 nM) for 1 h. Proteins were subjected to SDS/PAGE and visualized by in-gel fluorescence.

human RNF114 = assay: Gel-based ABPP, competition against JNS27 labeling of pure RNF114; type: binding; conditions: JNS27 50 μM
Protocol: (§2) Gel-Based ABPP. Gel-based ABPP methods were performed as previously described^34,62,63,67. Recombinant pure human proteins were purchased from Origene. […] CuAAC was performed to append rhodamine-azide (1 μM final concentration) onto alkyne probe-labeled proteins. Samples were then diluted with 20 μL of 4× reducing Laemmli SDS sample loading buffer (Alfa Aesar) and heated at 90° C. for 5 min. The samples were separated on precast 4-20% TGX gels (Bio-Rad Laboratories, Inc.). Prior to scanning by ChemiDoc MP (Bio-Rad Laboratories, Inc), gels were fixed in a solution of 10% acetic acid, 30% ethanol for 2 hrs. Inhibition of target labeling was assessed by densitometry using ImageJ.
as §2, with “described^14.” for “described^34,62,63,67.”

[5] = tested on: 231MFP breast cancer cells; assay: TMT-based quantitative proteomic profiling of 231MFP cells; type: cell-based, human; conditions: 100 nM, 12 h
Source text: Data shown in (FIG. 22F) are for 6397 proteins quantified with 2 or more unique peptides in n=3 biologically independent samples/group.
Data shown in FIG. 23I are for 5797 proteins quantified with 2 or more unique peptides in triplicate treatments.

BRD4 [6] = assay: BRD4 degradation in RNF114 wild-type and knockout HAP1 cells; type: cell-based, human
231MFP cells = assay: Quantitative proteomic profiling of proteins enriched by the nimbolide-alkyne probe in 231MFP cells; type: cell-based, human; conditions: in situ labeling of 231MFP cells
RNF114 = biological target: T3, RNF114 (Homo sapiens, UniProt Q9Y508); assay: Nimbolide-alkyne labeling of RNF114 in 231MFP cells in situ; type: cell-based
T3 construct: Myc; FLAG; purchased Origene
Protocol: Biotin-azide was appended to probe-labeled proteins by CuAAC, and these proteins were subsequently avidin-enriched. Resulting pulled down proteins were analyzed by SDS/PAGE and Western blotting for RNF114. Gels shown in FIGS. 21C-21F are representative gels from n=3 biologically independent samples/group.

T3 sequence (Q9Y508 whole entry): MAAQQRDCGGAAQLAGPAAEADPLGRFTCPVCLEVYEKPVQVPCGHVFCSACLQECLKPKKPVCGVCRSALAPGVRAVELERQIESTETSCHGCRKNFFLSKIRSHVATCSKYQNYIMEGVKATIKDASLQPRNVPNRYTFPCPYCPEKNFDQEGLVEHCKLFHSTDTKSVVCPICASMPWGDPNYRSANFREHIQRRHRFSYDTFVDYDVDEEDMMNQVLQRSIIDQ

## C=CC(=O)NC1Cc2ccccc2C1 [TRH 1-74]
RNF4
  hits from covalent ligand screen against IA-rhodamine labeling of RNF4: potential hits

## Cc1sc2c(c1C)C(c1ccc(Cl)cc1)=N[C@@H](CC(=O)NCCCCOc1ccc(Oc3ccc(N(Cc4ccccc4)C(=O)CCl)cc3)cc1)c1nnc(C)n1-2 [CCW 28-3, (S)—N-benzyl-2-chloro-N-(4-(4-(4-(2-(4-(4-chlorophenyl)-2,3,9-trimethyl-6H-thieno[3,2-f][1,2,4]triazolo[4,3-a][1,4]diazepin-6-yl)acetamido)butoxy)phenoxy)phenyl)acetamide]
BRD4 [1]
  BRD4 degradation compared with MZ1: does not degrade BRD4 as well as
BRD4 [1]; 231MFP cells, 3 h
  BRD4 degradation: leads to BRD4 degradation; also recorded: degrades BRD4 in a dose-responsive manner
BRD4 [1]; 231MFP, inhibitors 10 μM 30 min, degrader 1 μM 3 h
  BRD4 degradation after pre-treatment with bortezomib (BTZ), JQ1 or TAK-243: prevented
RNF4
  pIC50: 6.27
[2]
  selectivity for RNF4 in cells: not yet completely selective
[2]; 10 μM in situ
  off-targets part of the ubiquitin-proteasome system: none of these off-targets of CCW 28-3 are part of the ubiquitin-proteasome system
[2]; 10 μM in situ 1 h, IA-alkyne 100 μM
  targets with isotopically light to heavy ratios greater than 4 out of 1114 total quantified probe-modified peptides: 7
BRD4 [3]; RNF4 knockout HeLa
  BRD4 degradation in RNF4 knockout cells: not evident
BRD4 [3]; RNF4 wild-type
  BRD4 degradation in HeLa control cells: observed

## C=CC(=O)n1ccc2ccccc21 [YP 1-44, 1-(1H-indol-1-yl)prop-2-en-1-one]
RNF4
  inhibition of IA-rhodamine labeling of RNF4: reproducible and dose-responsive inhibition
  hits from covalent ligand screen against IA-rhodamine labeling of RNF4: potential hits
[4]
  selectivity, general cysteine-reactivity: much less selective compared to TRH 1-23

## C#CCC1CCC=CC1=O (stereo not shown) [JNS27, reference compound]
Human RNF114
  probe labeling of RNF114, wild-type versus C8A mutant: selective labeling of C8 on RNF114

## Cc1ncsc1-c1ccc(CNC(=O)[C@@H]2C[C@@H](O)CN2C(=O)[C@@H](NC(=O)COCCOCCOCCNC(=O)C[C@@H]2N=C(c3ccc(Cl)cc3)c3c(sc(C)c3C)-n3c(C)nnc32)C(C)(C)C)cc1 [MZ1, reference compound]
BRD4 [1]; 231MFP cells
  dose-response of BRD4 degradation: less degradation at 20 μM compared to 10, 1, and 0.1 μM; also recorded: better BRD4 degradation at 1 and 0.1 μM, and equivalent degradation to XH2 at 10 nM

## COC(=O)C[C@H]1[C@]2(C)C3=C(C)[C@H](c4ccoc4-c4ccc(C(=O)NCCCNC(=O)C[C@@H]5N=C(c6ccc(Cl)cc6)c6c(sc(C)c6C)-n6c(C)nnc65)cc4)C[C@H]3O[C@@H]2[C@@H]2OC(=O)[C@]3(C)C=CC(=O)[C@@]1(C)[C@@H]23 [XH2]
BRD4 [1]; 231MFP cells, 100 nM
  time to BRD4 degradation: ≤ 12 h
BRD4 [1]; 231MFP cells
  dose-response of BRD4 degradation: less degradation at 1 μM compared to 0.1 and 0.01 μM
BRD4 [1]; 231MFP cells, 12 h treatment
  BRD4 degradation: led to BRD4 degradation
BRD4 [1]; 231MFP, BTZ 1 μM, degrader 100 nM 12 h
  BRD4 degradation with proteasome inhibitor bortezomib (BTZ): attenuated
BRD4 [1]; 231MFP, TAK-243 10 μM or JQ1 1 μM, degrader 100 nM 12 h
  BRD4 degradation with TAK-243 or pre-competing JQ1: prevented; also recorded: attenuated
BRD4 [1]; 231MFP, emetine 75 μM, degrader 100 nM 12 h
  BRD4 degradation with translation inhibitor emetine: had no effect
[5]
  BRD2 and BRD3 levels: sparing the other identified BET family members BRD2 and BRD3
  selectivity of protein degradation, BRD4: selectively degrades BRD4
BRD4 [6]
  BRD4 degradation after re-expression of wild-type RNF114 in HAP1 RNF114 knockout cells: restoration of BRD4 degradation
BRD4 [6]; 100 nM, 12 h
  BRD4 degradation in RNF114 knockout (KO) HAP1 cells: not observed

## C#CCNC(=O)c1ccc(-c2occc2[C@@H]2C[C@H]3O[C@@H]4[C@@H]5OC(=O)[C@]6(C)C=CC(=O)[C@](C)([C@@H](CC(=O)OC)[C@]4(C)C3=C2C)[C@@H]56)cc1 [nimbolide-alkyne probe]
231MFP cells
  additional proteins enriched by >10-fold compared to no-probe controls: 114
  enrichment of RNF114 compared to no-probe controls: > 10 fold
RNF114; 231MFP cells expressing Flag-RNF114, 2 h
  in situ probe labeling of Flag-tagged RNF114 observed down to: 100 nM
RNF114; 231MFP cells, 50 μM probe, 1.5 h
  pulldown of endogenous RNF114: significant pulldown

## O=C(CCl)Nc1cccc2cnccc12 [TRH 1-163, 2-Chloro-N-(isoquinolin-5-yl)acetamide]
RNF4
  inhibition of IA-rhodamine labeling of RNF4: reproducible and dose-responsive inhibition
  hits from covalent ligand screen against IA-rhodamine labeling of RNF4: potential hits
RNF4; gel-based ABPP gels silver stained
  silver staining of RNF4: may be causing protein precipitation

## CC(CCc1ccccc1)NC(=O)CCl (stereo not shown) [DKM 2-76]
RNF4
  hits from covalent ligand screen against IA-rhodamine labeling of RNF4: potential hits

## COc1ccc(Oc2ccc(N(Cc3ccccc3)C(=O)CCl)cc2)cc1 [CCW16, N-benzyl-2-chloro-N-(4-(4-methoxyphenoxy)phenyl)acetamide]
RNF4
  reduced IA-rhodamine labeling of RNF4 observed down to: 1 µM
  pIC50: 5.74
[2]
  selectivity for RNF4 in cells: not yet completely selective

## COC(=O)C[C@H]1[C@]2(C)C3=C(C)[C@H](c4ccoc4-c4ccc(C(=O)NCCOCCOCCOCCNC(=O)C[C@@H]5N=C(c6ccc(Cl)cc6)c6c(sc(C)c6C)-n6c(C)nnc65)cc4)C[C@H]3O[C@@H]2[C@@H]2OC(=O)[C@]3(C)C=CC(=O)[C@@]1(C)[C@@H]23 [XH1]
BRD4 [1]; 231MFP cells, 12 h treatment
  BRD4 degradation: did not show appreciable BRD4 degradation
